# Columns and labels:
# Water dispersion test = assay type: physicochemical; conditions: 0.5% surfactant added to Paste A
# Method: Add appropriate food-grade carmine dye to the above pastes, homogenize thoroughly with a homogenizer so that each paste can be squeezed out from a 25 G root canal irrigation needle, and divide into syringes for use.
# S1: Prepare 23 150 mL beakers with similar diameters, fill them with water, and inject one drop (approximately 0.01 g) of each of the 23 pastes (A, B, C, D, E, F, G, H, A1-A15) into each beaker through a 25 G root canal irrigation needle (except G and H).
# S2: Observe the color change immediately after preparation.
# bacteria = conditions: intracanal medicament for one week; cited from earlier work
# Enterococcus faecalis = conditions: in vitro direct contact; cited from earlier work
Compound,effect of surfactant on the dispersion of the paste in water (Water dispersion test),reduction of bacteria (bacteria),contact time for complete eradication of Enterococcus faecalis (Enterococcus faecalis)
"CC(=O)O.CC(=O)O.NC(=N\CCCCCC/N=C(N)/N=C(\N)Nc1ccc(Cl)cc1)/N=C(\N)Nc1ccc(Cl)cc1 [CHX, Chlorhexidine Acetate]",best performance,,
[Ca+2].[OH-].[OH-] [calcium hydroxide],,92.5%,24 h
Fatty Alcohol Polyoxyethylene Ether [AEO-9],negative effects,,
Polyoxyethylene (60) Hydrogenated Castor Oil [RH60],best performance,,

# From US20250268799A1, “MEDIUM FOR WATER-FREE ROOT CANAL DISINFECTANT WITH HIGH FLUIDITY, DISINFECTANT USING SAME, AND USE THEREOF” (WENZHOU QINGCHENG HEALTHCARE TECH LTD., priority 2022, published 2025)
